# Laboratory results published in patent EP0037777A1, “Process for preparation of cycloalcoyl propanol amines useful as medicine” (PIERRE FABRE S.A., priority 1980, dated 1981).
# Structures can show the parent of a compound that is named as a salt.
# Test: Solubility
# Type: physicochemical
# Settings: for Solubilités : soluble dans le diméthyl sulfoxyde: in dimethyl sulfoxide (DMSO); for solubility: in water, read-out: Solubilités : soluble dans l'eau
SMILES,Solubilités : soluble dans le diméthyl sulfoxyde [%],solubility [mg/mL]
"CC1CCCCC1OCC(O)CNC(C)(C)C (centres unmarked) [Exemple 1, tertiobutylamino-3 (méthyl-2 cyclohexyloxy)-1 propanol-2, maléate]",15,100
"C#CC(C)(C)NCC(O)COC1CCCCC1 (centres unmarked) [Exemple 3, (diméthyl-1,1 propyne-2 yl-1) amino-3, cyclohexyloxy-1 propanol-2 oxalate]",,20
"CC(C)NCC(O)COCC1CCCCC1 (centres unmarked) [Exemple 4, isopropylamino-3, cyclohexyl méthoxy-1 propanol-2 maléate]",18,100
"CC(C)(C)NCC(O)COCC1CCCCC1 (centres unmarked) [Exemple 5, tertiobutylamino-3 cyclohexyl méthoxy-1, propanol-2, maléate]",10,25
"CC(C)(C)NCC(O)COCCC1=CCC2CC1C2(C)C (centres unmarked) [Exemple 6, tertiobutylamino-3 [(diméthyl-6-6, bicyclo (3,1,1)hepten-2 yl)-2 éthoxy7-1 propanol-2, maléate]",10,20
"CC(C)(C)NCC(O)COCC1CC=CCC1 (centres unmarked) [Exemple 8, tertiobutylamino-3 (cyclohexen-3 yl-1) méthoxy-1 propanol-2, maléate]",15,100
